# Where a name gives a salt, the structure may show the parent alone.
# Key:
# [1] = tested on: host vs. graft rejection in mice; assay: Inhibitory effects on host vs. graft rejection in mice (right popliteal lymph node weight); format: in vivo, C3H/HeN mice; conditions: Mus musculus
# Method: Inhibitory Effects of Test Compounds on Host Vs. Graft Rejection in Mice
# This experiment was performed according to the method described in Transplantation 55(3) (1993): 578-591. Spleens were collected from 6 to 16 week old male BALB/c mice (CHARLES RIVER JAPAN). The spleens were placed in an RPMI-1640 medium (SIGMA) and were gently pressed between two slide glasses and then passed through a cell strainer (70 μm, Falcon) to form a cell suspension. The suspension was then centrifuged and the supernatant was discarded. An ammonium chloride-Tris isotonic buffer was added to the suspension to lyse erythrocytes. The cells were then centrifuged three times in RPMI-1640 medium for washing and were resuspended in an RPMI-1640 medium. To this suspension, mitomycin C (KYOWA HAKKO KOGYO Co., Ltd.) was added to a final concentration of 25 μg/mL and the suspension was incubated for 30 minutes at 37° C. in a 5% CO2 atmosphere. The cells were centrifuged three times in RPMI-1640 medium for washing and were resuspended in an RPMI-1640 medium so that the medium would contain 2.5×10^8 cells/mL. This suspension served as a “stimulation cell suspension.” Using a 27 G needle with a microsyringe (Hamilton), 20 μL (5×10^6 cells/mouse) of the stimulation cell suspension was subcutaneously injected into the right hind footpad of 6 to 8 week old male C3H/HeN mice (CLEA JAPAN). Normal control group was injected with RPMI-1640 medium alone. 4 days after the injection, right popliteal lymph nodes were collected and were weighed on a Mettler AT201 electronic scale (METTLER TOLEDO Co., Ltd.). Each animal was intraperitoneally administered a test compound once a day for four consecutive days starting on the day of the injection of the stimulation cells (i.e., total of 4 times). Control groups were administered the same vehicle as that used in the preparation of each test compound. The inhibition (%) was determined using the following formula {[Weight of right popliteal lymph nodes of positive control group]−[Weight of right popliteal lymph nodes of test compound group]×100}/{[Weight of right popliteal lymph nodes of positive control group]−[Weight of right popliteal lymph nodes of normal control group]} Formula 1
# hS1P1 receptors = biological target: T1, hS1P1 receptors (Homo sapiens, UniProt P21453); assay: Intracellular Ca2+ mobilization in CHO cells expressing human S1P receptors (hS1P1); format: cell-based; conditions: read-out: S1P1 (EC50 class, intracellular Ca2+ mobilization)
# T1 construct: expressed in transfected cells; host or cells: CHO cells (Geneticin-selected)
# T1 sequence (P21453 whole entry): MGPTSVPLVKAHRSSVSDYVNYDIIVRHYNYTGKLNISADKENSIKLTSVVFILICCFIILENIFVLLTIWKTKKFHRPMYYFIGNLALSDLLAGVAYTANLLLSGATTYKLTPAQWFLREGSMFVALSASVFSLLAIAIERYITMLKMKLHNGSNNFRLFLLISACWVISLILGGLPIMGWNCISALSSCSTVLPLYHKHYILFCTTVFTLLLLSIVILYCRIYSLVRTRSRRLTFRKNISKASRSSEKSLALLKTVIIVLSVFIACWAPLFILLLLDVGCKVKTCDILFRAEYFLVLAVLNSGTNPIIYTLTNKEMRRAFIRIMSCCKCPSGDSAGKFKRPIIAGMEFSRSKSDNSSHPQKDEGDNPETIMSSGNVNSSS
# Method: (§1) Test for the Ability of Test Compounds to Induce Intracellular Ca^2+ Mobilization in Cells Expressing Human S1P (Sphingosine-1-Phosphate) Receptors
# (§2) CHO cells expressing human S1P receptors (i.e., CHO cells expressing hS1P1 receptors or hS1P3 receptors) were subcultured on Ham's F-12 medium supplemented with 10% fetal bovine serum and 200 μg/mL Geneticin. The cells were seeded on a 96-well black clear bottom plate (COSTAR) at 4×10^4 cells/well and were cultured overnight at 37° C. in 5% CO2. A fluorescent reagent that emits fluorescence upon binding to Ca^2+ (Calcium Screening Kit (DOJINDO)) was added to the culture and the cells were further cultured for 60 min at 37° C. in 5% CO2. After culturing, microplate spectrofluorometer (FLEX station, MOLECULAR DEVICE) was used to measure the fluorescence intensity at an excitation wavelength of 485 nm and a detection wavelength of 525 nm. S1P or a test compound adjusted with cultural medium to a concentration 10 times higher than the final concentration (final DMSO concentration=0.1%). Each test compound solution was added 18 sec. after beginning of the measurement of fluorescence. The fluorescence intensity was measured every 1.5 sec for 100 sec. For each test compound, the difference between the maximum fluorescence intensity and the minimum fluorescence intensity (i.e., increase in fluorescence) was determined from the measurements. The rate of fluorescence increase (%) for each test compound was calculated by the difference (100%) of the fluorescence increase between solvent only and S1P (10^−6M). Using this value as an index of the ability of the test compound to induce intracellular Ca^2+ mobilization, EC50 was determined by PRISM software (GraphPad).
# hS1P4 receptors = biological target: T2, hS1P4 receptors (Homo sapiens, UniProt O95977); assay: Activation of extracellular regulatory kinase (ERK) in CHO cells expressing hS1P4 receptors; format: cell-based
# T2 construct: expressed in transfected cells; host or cells: CHO cells (Geneticin-selected)
# T2 sequence (O95977 1-384): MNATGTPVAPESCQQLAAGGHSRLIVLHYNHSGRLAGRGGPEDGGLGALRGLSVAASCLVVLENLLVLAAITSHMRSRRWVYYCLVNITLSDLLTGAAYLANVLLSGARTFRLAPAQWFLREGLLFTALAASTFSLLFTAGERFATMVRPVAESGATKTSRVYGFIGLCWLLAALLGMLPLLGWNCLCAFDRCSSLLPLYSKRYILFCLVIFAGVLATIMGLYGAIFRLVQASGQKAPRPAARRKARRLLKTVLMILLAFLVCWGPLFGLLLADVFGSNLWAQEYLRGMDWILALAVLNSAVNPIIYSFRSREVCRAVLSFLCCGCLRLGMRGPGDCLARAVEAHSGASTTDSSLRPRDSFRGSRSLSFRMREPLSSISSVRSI
# Method: Test for the Ability of Test Compounds to Induce Activation of Extracellular Regulatory Kinase (ERK) in Cells Expressing Human S1P Receptors
# CHO cells expressing human S1P receptors (i.e., CHO cells expressing hS1P4 receptors) were subcultured on Ham's F-12 medium supplemented with 10% fetal bovine serum and 200 μg/mL Geneticin. The cells were seeded on a 6-well cell culture plate (COSTAR) at 3×10^5 cells/well and were cultured overnight at 37° C. in 5% CO2. On the following day, the medium was replaced with FBS-free Ham's F-12 medium (containing 0.1% fatty acid-free bovine serum albumin) and the cells were cultured overnight at 37° C. in 5% CO2. S1P or a test compound adjusted with Ham's F-12 medium (with 0.1% fatty acid-free bovine serum albumin) to a concentration 10 times higher than the final concentration (final DMSO concentration=0.1%). Each test compound solution was added to this culture plate. The cells were cultured for 5 min at 37° C. in 5% CO2. The medium was removed and the cells were washed with a 200 μmol/L ice-cold PBS containing Na3VO4. A lysis buffer (20 mmol/L Tris-HCl pH 7.5, 1% Triton X-100, 1 mmol/L EDTA, 1 mmol/L EGTA, 0.5 mmol/L Na3VO4, 0.1% β-mercaptoethanol, 50 mmol/L NaF, 5 mmol/L Na4O7P3, 10 mmol/L C3H7O6Na, 1 μmol/L Microcystin LR, 1× Complete Protease Inhibitor Cocktail (ROCHE)) was then added to the cells and the reaction was carried out on ice for 5 min to lyse the cells. The cell lysate was subjected to sodium dodecyl sulfate-polyacrylamide gel electrophoresis (SDS-PAGE) to separate proteins. The proteins were transferred to a PVDF membrane (Hybond-P, Amersham Biosciences). The membrane was reacted overnight at 4° C. with anti-phospho ERK (p42/44 MAPK) monoclonal antibody (E10, Cell Signaling Technologies) diluted 1000-fold, and was subsequently reacted for 1 hour at room temperature with alkaline phosphatase-labeled anti-mouse IgG antibody (Molecular Probe) diluted 6000-fold. After washing with 20 mmol/L Tris-HCl and 150 mmol/L NaCl solution, the PVDF membrane was fluorostained with DDAO phosphate (DyeChrome Western Blot Stain Kit, Molecular Probe), a fluorescent substrate of alkaline phosphatase. The fluorescence was detected using a variable image analyzer (Typhoon 8600, Amersham Biosciences). The detected signal of phosphorylated ERK was quantified using ImageQuant software (Molecular Dynamics). The rate of ERK activation (%) for each test compound was calculated by the difference (100%) of the signal intensity between solvent only and S1P (10^−6 mol/L).
# hS1P3 receptors = biological target: T3, hS1P3 receptors (Homo sapiens, UniProt Q99500); assay: Intracellular Ca2+ mobilization in CHO cells expressing human S1P receptors (hS1P3); format: cell-based; conditions: read-out: S1P3 (EC50 class, intracellular Ca2+ mobilization)
# T3 construct: expressed in transfected cells; host or cells: CHO cells (Geneticin-selected)
# T3 sequence (Q99500 whole entry): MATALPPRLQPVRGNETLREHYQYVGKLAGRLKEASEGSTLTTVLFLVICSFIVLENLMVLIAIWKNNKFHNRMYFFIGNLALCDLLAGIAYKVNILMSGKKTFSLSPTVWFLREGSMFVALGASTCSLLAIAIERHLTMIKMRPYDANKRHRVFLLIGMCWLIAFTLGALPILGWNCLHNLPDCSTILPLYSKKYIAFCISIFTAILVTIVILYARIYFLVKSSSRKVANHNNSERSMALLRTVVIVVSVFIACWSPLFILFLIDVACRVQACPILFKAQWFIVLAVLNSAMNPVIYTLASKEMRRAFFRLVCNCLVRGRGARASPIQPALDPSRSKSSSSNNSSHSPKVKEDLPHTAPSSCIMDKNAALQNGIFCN
# Method: as §1, §2
EC50 (hS1P1 receptors) [µM],EC50 (hS1P3 receptors) [µM],Structure (SMILES),further results
0.01 to 0.1,0.01 to 0.1,"NC(CO)(CCCc1ccc(Sc2cccc(OCc3ccccc3)c2)cc1Cl)COP(=O)(O)O (stereo not drawn) [Example 236, 2-amino-5-[4-(3-benzyloxyphenylthio)-2-chlorophenyl]-2-hydroxymethylpentylphosphonate monoester]",inhibition in vivo at 0.03 mg/kg [1]: 73%; Induction effect of ERK activation on hS1P-expressing CHO cells (Activation rate (%) relative to the activated ERK at S1P10-6 mol/L) (hS1P4 receptors; Compound Conc. 1 nmol/L): 8.0%; Induction effect of ERK activation on hS1P-expressing CHO cells (Activation rate (%) relative to the activated ERK at S1P10-6 mol/L) (hS1P4 receptors; Compound Conc. 10 nmol/L): 119.5%
–,–,"CCOP(=O)(C=CC(N)CCCc1ccc(Sc2cccc(OCc3ccccc3)c2)cc1Cl)OCC (stereo not drawn) [Example 233, Diethyl 3-amino-6-[4-(3-benzyloxyphenylthio)-2-chlorophenyl]-1-hexenylphosphonate hydrochloride]",inhibition in vivo at 30 mg/kg [1]: 53%
< 0.01,< 0.01,"CC(N)(CCCc1ccc(Sc2cccc(OCc3ccccc3)c2)cc1Cl)COP(=O)(O)O (single isomer, unassigned; (+)) [Example 239, (+)-2-amino-5-[4-(3-benzyloxyphenylthio)-2-chlorophenyl]-2-methylpentylphosphonate monoester]",inhibition in vivo at 0.03 mg/kg [1]: 65%
< 0.01,< 0.01,"NC(CO)(CCc1ccc(Sc2cccc(OCc3ccccc3)c2)cc1Cl)COP(=O)(O)O (stereo not drawn) [Example 237, 2-amino-4-[4-(3-benzyloxyphenylthio)-2-chlorophenyl]-2-hydroxymethylbutylphosphonate monoester]",inhibition in vivo at 0.1 mg/kg ([1]; Dose 0.1 mg/kg): 75%; Induction effect of ERK activation on hS1P-expressing CHO cells (Activation rate (%) relative to the activated ERK at S1P10-6 mol/L) (hS1P4 receptors; Compound Conc. 1 nmol/L): 35.8%; Induction effect of ERK activation on hS1P-expressing CHO cells (Activation rate (%) relative to the activated ERK at S1P10-6 mol/L) (hS1P4 receptors; Compound Conc. 10 nmol/L): 80.7%
0.1 to 1,≥ 1,"NC(CO)(CCCc1ccc(Sc2cccc(O)c2)cc1Cl)COP(=O)(O)O (stereo not drawn) [Example 238, 2-amino-5-[2-chloro-4-(3-hydroxyphenylthio)phenyl]-2-hydroxymethylpentylphosphonate monoester]",inhibition in vivo at 3 mg/kg ([1]; Dose 3 mg/kg): 65%
–,–,"CCOP(=O)(CCC(N)CCCc1ccc(Sc2cccc(OCc3ccccc3)c2)cc1Cl)OCC (stereo not drawn) [Example 235, Diethyl 3-amino-6-[4-(3-benzyloxyphenylthio)-2-chlorophenyl]hexylphosphonate hydrochloride]",inhibition in vivo at 30 mg/kg [1]: 56%
0.1 to 1,≥ 1,"NC(CCCc1ccc(Sc2cccc(OCc3ccccc3)c2)cc1Cl)CCP(=O)(O)O (stereo not drawn) [Example 241, 3-amino-6-[4-(3-benzyloxyphenylthio)-2-chlorophenyl]hexylphosphonic acid]",inhibition in vivo at 10 mg/kg [1]: 46%
0.1 to 1,≥ 1,"NC(/C=C/P(=O)(O)O)CCCc1ccc(Sc2cccc(OCc3ccccc3)c2)cc1Cl (stereo not drawn) [Example 242, 3-amino-6-[4-(3-benzyloxyphenylthio)-2-chlorophenyl]-1-hexenylphosphonic acid]",inhibition in vivo at 10 mg/kg [1]: 62%
